ChEMBL document CHEMBL1201862, “PubChem BioAssay data set” (2004)
Values joined by “and” are separate entries in the source; they are usually repeats but may differ in a detail not shown here. Identical values can stand only once. Active and inactive are the calls of the source.

What was measured:
[1] = inhibitors of Trypanosoma cruzi host-cell infection, confirmation, beta-gal luminescence, NIH3T3 host cells (AID 2630); format: functional, cell-based; details: Mus musculus
[2] = Luminescence Cell-Based/Microorganism Confirmation at Dose of Inhibitors of Trypanosoma cruzi Infection. [Related pubchem assays: 1885, 1968 ]; format: functional
[3] = cytotoxicity toward NIH3T3 fibroblasts, dose response, counter-screen, cell-based, ATP luminescence, mouse fibroblasts (AID 2010); format: functional;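 note: cells exposed to compound for about 90 hours before reading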
[4] = inhibitors of intracellular T. cruzi replication, confirmation, NIH3T3 host cells, beta-gal luminescence (AID 2044); format: functional, cell-based;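 note: intracellular parasites grown in NIH/3T3 mouse fibroblasts as host cells; luminescent beta-galactosidase reporter signal from transgenic T. cruzi replicating inside host cells; inhibitors lower the luminescence signal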
[5] = Luminescence Cell-Based Secondary HTS screen to identify cytotoxic compounds of NIH3T3 cells. [Related pubchem assays: 1885, 1968 ]; format: functional
[6] = cells
[7] = target: T1, Streptokinase A (Streptococcus pyogenes serotype M1, UniProt P10520); experiment: S. pyogenes streptokinase expression inhibitors, potency, dose response, plasminogen activation absorbance, OD405 (AID 1914); format: functional, Streptococcus pyogenes M1 GAS;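 note: secreted streptokinase activity via plasminogen activation per viability signal from cell pellet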
T1 sequence (P10520 whole entry): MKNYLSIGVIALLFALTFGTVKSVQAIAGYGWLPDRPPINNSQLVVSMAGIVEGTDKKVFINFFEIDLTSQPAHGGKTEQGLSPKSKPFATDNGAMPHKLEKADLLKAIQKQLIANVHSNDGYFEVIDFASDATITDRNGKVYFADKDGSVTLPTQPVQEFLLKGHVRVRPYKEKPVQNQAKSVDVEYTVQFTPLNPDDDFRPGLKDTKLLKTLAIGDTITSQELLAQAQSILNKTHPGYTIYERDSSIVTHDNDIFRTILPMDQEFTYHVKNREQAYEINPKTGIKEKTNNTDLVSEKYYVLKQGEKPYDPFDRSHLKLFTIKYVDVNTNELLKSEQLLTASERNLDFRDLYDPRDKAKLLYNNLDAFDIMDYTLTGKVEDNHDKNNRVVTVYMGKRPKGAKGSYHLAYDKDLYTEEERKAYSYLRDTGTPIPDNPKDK

[8] = target: T2, Intestinal-type alkaline phosphatase (Homo sapiens, UniProt P09923); experiment: human IAP activators, dose response, biochemical, luminescent, uHTS hits, set 2 (AID 488817); format: functional;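 note: potency of activators that raise enzyme activity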
[9] = system: Streptococcus sp. 'group A'; experiment: growth inhibition of control SK(-) GAS strain, dose response, counter-screen for streptokinase expression inhibitor project, luminescence, kanamycin, BacTiterGlo, confirmation (AID 1900); format: functional, organism-based
[10] = system: Streptococcus; experiment: Group A Streptococcus viability loss, dose response, counter-screen for streptokinase expression inhibitor project, luminescence, BacTiterGlo (AID 1915); format: functional, organism-based;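 note: potency for reduction of bacterial viability or growth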
[11] = C. albicans growth with fluconazole, confirmation, fluorescence, retest (AID 2467); format: functional, cell-based
[12] = target: T3, Alkaline phosphatase, tissue-nonspecific isozyme (Homo sapiens, UniProt P05186); experiment: TNAP enzyme activators, dose response, selectivity assay for human IAP activator project, biochemical, TNAP isozyme, human IAP uHTS hits (AID 488886); format: functional;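 note: potency of compounds raising TNAP activity as a selectivity check on IAP activators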
T3 sequence (P05186 whole entry): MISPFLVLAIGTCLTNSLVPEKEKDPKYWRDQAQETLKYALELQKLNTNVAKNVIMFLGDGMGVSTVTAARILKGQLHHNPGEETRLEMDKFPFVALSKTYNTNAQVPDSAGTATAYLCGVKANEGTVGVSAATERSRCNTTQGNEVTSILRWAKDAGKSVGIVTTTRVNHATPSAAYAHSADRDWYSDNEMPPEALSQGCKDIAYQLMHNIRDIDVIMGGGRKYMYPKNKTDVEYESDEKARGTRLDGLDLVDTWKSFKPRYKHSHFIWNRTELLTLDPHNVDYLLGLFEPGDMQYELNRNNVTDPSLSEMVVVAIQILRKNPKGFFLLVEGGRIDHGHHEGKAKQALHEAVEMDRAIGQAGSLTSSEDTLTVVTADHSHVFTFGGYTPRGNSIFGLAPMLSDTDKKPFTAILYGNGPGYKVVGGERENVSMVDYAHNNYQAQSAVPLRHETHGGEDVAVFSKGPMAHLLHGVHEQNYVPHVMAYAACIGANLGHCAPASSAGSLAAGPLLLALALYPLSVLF

[13] = NIH-3T3 fibroblast cytotoxicity, dose response, cytotoxicity control, cell-based, fluorescence, Alamar Blue, secondary assay (AID 2327); format: functional;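 note: NIH-3T3 mouse fibroblasts cultured with fluconazole at 8 µg/mL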
[14] = target: T2, Intestinal-type alkaline phosphatase; experiment: human intestinal alkaline phosphatase activators, dose response, biochemical, luminescence, uHTS hits (AID 463120); format: functional
[15] = target: Intestinal-type alkaline phosphatase (Mus musculus, UniProt P24822); experiment: PubChem AID 488875; format: functional
[16] = target: T4, Estrogen receptor (Homo sapiens, UniProt P03372);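 note: potency for inhibiting coactivator peptide recruitment to the receptor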
T4 sequence (P03372 whole entry): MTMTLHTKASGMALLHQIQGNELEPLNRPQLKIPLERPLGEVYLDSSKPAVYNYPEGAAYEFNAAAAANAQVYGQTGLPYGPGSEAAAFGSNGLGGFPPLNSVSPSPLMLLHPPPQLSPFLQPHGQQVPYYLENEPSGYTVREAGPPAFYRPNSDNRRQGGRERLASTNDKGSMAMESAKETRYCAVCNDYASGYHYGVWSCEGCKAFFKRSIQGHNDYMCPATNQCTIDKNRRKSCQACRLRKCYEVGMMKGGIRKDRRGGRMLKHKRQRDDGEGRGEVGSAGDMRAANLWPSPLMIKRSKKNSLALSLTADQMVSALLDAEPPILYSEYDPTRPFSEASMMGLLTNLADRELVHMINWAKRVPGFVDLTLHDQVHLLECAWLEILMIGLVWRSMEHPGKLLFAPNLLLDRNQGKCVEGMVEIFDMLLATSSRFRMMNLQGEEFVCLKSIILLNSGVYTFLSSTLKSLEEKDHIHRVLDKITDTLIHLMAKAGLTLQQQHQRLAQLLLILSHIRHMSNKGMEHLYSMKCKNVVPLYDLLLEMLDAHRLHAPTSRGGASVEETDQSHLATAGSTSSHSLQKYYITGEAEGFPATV

[17] = target: T5, CAAX prenyl protease 2 (Saccharomyces cerevisiae S288c, UniProt Q03530); format: biochemical
T5 sequence (Q03530 whole entry): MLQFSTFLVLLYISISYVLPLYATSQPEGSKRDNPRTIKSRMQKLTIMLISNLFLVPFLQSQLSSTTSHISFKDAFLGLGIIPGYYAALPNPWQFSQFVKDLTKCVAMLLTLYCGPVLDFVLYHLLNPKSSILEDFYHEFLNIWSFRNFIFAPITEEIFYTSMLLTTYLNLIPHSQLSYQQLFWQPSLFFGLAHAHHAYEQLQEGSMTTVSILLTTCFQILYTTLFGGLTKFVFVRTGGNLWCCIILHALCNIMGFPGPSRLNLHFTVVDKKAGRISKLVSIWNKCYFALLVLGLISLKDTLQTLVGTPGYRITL

[18] = target: Mitogen-activated protein kinase 10 (Homo sapiens, UniProt P53779); experiment: Dose response biochemical screening assay for inhibitors of c-Jun N-Terminal Kinase 3 (JNK3). [Related pubchem assays: 746 ]
[19] = target: CAAX prenyl protease 1 (Saccharomyces cerevisiae S288c, UniProt P47154); experiment: Ste24 protease inhibitors, dose response, biochemical, S. cerevisiae, plate reader, cherry-pick (AID 488815)
[20] = target: Trypsin (Sus scrofa, UniProt P00761); experiment: porcine trypsin inhibitors, dose response, selectivity assay for Rce1 protease inhibitor project, biochemical, quenched peptide fluorescence, cherry-pick (AID 488789)
[21] = target: T6, Voltage-gated N-type calcium channel alpha-1B subunit/Amyloid beta A4 precursor protein-binding family A member 1 (Homo sapiens, UniProt Q00975+Q02410); format: protein assay
[22] = target: T7, Probable nicotinate-nucleotide adenylyltransferase (Staphylococcus aureus (strain N315), UniProt P65502); format: functional, Staphylococcus aureus subsp. aureus N315; details: read-out: IC50_Mean;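 for IC50 Mean: confirmatory dose-response retesting of NadD inhibitor hits first found in an ultra-high-throughput screen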
[23] = target: T8, Induced myeloid leukemia cell differentiation protein Mcl-1 (Homo sapiens, UniProt Q07820); format: functional
[24] = target: Protein-tyrosine kinase 2-beta (Homo sapiens, UniProt Q14289);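 note: potency of inhibitors of PYK2 kinase phosphorylation of poly-GT substrate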
[25] = target: T8, Induced myeloid leukemia cell differentiation protein Mcl-1; experiment: MCL1-BIM BH3 interaction inhibitors, dose response, biochemical, fluorescence polarization, BIM-BH3 peptide, 1536-well (AID 2217)
[26] = target: Bcl-2-like protein 1 (Homo sapiens, UniProt Q07817); experiment: BCL-XL inhibitors, dose response, selectivity assay for MCL1 inhibitor project, biochemical, fluorescence polarization, 1536-well (AID 2218)
[27] = target: T6, Voltage-gated N-type calcium channel alpha-1B subunit/Amyloid beta A4 precursor protein-binding family A member 1; format: protein assay; remark: listed apart in the source
[28] = target: T6, Voltage-gated N-type calcium channel alpha-1B subunit/Amyloid beta A4 precursor protein-binding family A member 1; experiment: disruptors of Mint-PDZ/N-type channel peptide interaction – biochemical, HTRF, SAR follow-up (AID 2489); format: functional
[29] = target: Protein Rev (Human immunodeficiency virus type 1 group M subtype B (isolate WMJ22)(HIV-1), UniProt P05866); experiment: HIV-1 Rev-RRE RNA binding disruptors, dose response, biochemical, protein-RNA interaction (AID 842); parameters: species or system Human immunodeficiency virus 1
[30] = target: DNA (cytosine-5)-methyltransferase 1 (Homo sapiens, UniProt P26358); experiment: DNMT1 methyltransferase inhibitors, confirmation, biochemical, fluorescent molecular beacon (AID 602386); format: functional
[31] = target: T6, Voltage-gated N-type calcium channel alpha-1B subunit/Amyloid beta A4 precursor protein-binding family A member 1; experiment: disruptors of Mint-PDZ/N-type channel peptide interaction – biochemical, HTRF, set 2, SAR follow-up (AID 434980); format: functional
[32] = target: T7, Probable nicotinate-nucleotide adenylyltransferase; format: functional, Staphylococcus aureus subsp. aureus N315
[33] = target: SUMO E1/E2 (Homo sapiens, UniProt P63279+Q9UBE0+Q9UBT2); experiment: SAR analysis of SUMOylation using HTRF in an in-Vitro dose response assay. [Related pubchem assays (depositor defined):AID2006, AID2011, AID2018, AID2069, AID2658]; format: functional
[34] = target: T9, Genome polyprotein (Hepatitis C virus, UniProt Q2Q167); experiment: HCV core protein dimerization inhibitors, dose response, biochemical, TR-FRET (AID 2159); parameters: species or system Hepacivirus hominis;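 note: blocks dimerization of HCV core protein measured by TR-FRET between tagged core106 pairs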
T9 sequence (Q2Q167 whole entry): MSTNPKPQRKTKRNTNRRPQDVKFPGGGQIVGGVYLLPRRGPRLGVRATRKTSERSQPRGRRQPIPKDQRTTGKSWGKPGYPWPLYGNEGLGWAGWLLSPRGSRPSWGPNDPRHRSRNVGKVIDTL

T6 sequence (Q00975 whole entry): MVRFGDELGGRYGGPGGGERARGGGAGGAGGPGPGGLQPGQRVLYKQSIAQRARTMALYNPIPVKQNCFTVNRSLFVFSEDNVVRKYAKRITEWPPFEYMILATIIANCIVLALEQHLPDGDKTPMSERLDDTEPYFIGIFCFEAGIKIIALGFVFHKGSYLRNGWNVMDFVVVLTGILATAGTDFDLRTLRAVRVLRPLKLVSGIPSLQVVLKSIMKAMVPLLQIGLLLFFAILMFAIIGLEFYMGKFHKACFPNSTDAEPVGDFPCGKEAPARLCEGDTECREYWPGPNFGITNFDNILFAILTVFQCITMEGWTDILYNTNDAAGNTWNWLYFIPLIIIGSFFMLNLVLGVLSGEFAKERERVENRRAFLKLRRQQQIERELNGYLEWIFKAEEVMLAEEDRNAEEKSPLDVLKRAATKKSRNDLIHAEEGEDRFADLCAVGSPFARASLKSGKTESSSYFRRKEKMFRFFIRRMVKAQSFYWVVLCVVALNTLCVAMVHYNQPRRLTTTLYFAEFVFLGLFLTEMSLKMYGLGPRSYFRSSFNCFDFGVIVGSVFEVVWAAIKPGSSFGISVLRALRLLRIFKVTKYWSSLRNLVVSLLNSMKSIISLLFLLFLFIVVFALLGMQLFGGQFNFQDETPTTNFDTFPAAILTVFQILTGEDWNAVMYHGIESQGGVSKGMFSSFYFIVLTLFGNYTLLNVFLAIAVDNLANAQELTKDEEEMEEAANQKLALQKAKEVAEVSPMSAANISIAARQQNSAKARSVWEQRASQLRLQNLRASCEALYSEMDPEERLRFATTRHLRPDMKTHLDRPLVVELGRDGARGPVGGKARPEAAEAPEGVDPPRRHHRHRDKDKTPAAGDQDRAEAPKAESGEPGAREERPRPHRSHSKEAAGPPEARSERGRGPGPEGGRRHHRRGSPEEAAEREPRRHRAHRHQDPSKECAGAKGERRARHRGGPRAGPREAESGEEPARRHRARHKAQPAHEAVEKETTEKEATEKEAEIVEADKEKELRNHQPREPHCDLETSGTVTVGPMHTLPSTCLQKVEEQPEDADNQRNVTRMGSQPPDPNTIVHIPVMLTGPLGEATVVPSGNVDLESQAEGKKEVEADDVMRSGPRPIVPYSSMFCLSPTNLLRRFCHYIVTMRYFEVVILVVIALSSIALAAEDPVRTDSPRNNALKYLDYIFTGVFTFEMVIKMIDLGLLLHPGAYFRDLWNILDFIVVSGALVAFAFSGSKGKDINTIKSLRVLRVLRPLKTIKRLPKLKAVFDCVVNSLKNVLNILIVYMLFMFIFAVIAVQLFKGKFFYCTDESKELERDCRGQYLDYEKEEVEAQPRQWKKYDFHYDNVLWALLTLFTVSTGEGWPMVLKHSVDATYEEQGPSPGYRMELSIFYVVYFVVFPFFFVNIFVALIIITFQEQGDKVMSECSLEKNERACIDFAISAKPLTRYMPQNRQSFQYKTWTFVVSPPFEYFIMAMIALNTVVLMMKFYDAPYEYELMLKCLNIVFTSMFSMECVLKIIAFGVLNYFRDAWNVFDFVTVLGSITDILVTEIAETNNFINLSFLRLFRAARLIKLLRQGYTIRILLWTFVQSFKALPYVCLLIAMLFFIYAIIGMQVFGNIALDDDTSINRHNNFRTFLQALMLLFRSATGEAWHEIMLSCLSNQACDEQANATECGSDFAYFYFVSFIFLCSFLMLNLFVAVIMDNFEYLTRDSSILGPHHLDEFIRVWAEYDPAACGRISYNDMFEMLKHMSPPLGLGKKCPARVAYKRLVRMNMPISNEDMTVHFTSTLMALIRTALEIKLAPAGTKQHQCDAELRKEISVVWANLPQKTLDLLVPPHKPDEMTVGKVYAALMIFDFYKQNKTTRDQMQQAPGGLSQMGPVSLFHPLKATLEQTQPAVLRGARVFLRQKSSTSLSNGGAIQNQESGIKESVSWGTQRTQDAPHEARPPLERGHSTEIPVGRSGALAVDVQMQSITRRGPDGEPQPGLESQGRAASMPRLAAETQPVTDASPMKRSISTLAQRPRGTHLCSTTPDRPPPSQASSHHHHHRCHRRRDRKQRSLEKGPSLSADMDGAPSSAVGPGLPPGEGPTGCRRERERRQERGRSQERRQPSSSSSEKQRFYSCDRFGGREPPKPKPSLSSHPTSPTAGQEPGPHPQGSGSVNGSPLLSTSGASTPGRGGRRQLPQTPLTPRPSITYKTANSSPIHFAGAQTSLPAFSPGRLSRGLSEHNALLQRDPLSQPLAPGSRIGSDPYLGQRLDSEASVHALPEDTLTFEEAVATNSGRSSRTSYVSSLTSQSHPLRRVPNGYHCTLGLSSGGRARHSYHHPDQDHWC
T6 sequence (Q02410 whole entry): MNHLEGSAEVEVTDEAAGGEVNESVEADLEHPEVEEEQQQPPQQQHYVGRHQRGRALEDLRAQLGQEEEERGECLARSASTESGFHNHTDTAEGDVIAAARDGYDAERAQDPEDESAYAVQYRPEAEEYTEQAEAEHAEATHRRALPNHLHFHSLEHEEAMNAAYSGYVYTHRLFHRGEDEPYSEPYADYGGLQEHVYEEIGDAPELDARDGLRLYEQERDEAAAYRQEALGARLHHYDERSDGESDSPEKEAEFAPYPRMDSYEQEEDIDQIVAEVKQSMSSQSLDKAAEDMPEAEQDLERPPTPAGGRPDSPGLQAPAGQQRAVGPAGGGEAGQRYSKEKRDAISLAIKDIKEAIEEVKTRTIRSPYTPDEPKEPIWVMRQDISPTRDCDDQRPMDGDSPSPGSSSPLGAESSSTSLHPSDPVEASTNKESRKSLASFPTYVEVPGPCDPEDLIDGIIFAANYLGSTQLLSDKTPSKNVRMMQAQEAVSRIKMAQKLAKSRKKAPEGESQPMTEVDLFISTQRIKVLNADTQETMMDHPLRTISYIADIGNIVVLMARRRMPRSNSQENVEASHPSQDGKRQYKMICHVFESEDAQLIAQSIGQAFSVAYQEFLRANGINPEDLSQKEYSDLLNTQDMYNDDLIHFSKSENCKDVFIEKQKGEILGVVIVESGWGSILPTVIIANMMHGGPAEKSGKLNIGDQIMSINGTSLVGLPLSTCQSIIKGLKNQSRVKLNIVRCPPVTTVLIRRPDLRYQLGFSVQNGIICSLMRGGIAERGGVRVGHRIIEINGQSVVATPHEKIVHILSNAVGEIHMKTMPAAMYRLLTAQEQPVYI
Sequence of SUMO E1/E2 (Q9UBE0 whole entry): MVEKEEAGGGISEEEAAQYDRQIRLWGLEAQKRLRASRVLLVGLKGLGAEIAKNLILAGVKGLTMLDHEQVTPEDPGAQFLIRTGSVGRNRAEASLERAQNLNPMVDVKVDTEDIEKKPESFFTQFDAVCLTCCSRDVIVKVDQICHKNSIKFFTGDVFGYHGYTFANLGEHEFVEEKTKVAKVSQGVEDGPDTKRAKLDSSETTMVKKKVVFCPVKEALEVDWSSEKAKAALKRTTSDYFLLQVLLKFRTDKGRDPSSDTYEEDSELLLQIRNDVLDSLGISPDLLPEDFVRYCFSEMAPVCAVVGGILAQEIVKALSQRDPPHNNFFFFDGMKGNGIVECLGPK
Sequence of SUMO E1/E2 (Q9UBT2 whole entry): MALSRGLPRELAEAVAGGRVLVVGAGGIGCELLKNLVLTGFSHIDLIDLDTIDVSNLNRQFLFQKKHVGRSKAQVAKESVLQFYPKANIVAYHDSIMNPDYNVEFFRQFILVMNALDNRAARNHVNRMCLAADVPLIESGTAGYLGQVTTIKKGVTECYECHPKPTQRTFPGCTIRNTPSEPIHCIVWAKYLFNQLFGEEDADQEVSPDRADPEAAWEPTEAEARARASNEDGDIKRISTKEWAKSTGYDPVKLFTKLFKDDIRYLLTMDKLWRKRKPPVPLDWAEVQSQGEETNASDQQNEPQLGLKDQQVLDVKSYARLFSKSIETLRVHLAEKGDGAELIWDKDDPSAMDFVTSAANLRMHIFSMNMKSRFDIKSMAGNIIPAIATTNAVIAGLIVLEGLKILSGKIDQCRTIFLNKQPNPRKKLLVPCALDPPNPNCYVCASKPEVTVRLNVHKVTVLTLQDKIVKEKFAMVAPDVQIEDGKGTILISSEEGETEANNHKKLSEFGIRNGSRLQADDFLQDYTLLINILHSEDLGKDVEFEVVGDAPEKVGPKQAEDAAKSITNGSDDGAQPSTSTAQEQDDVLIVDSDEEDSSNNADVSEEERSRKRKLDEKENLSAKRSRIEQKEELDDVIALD
Sequence of SUMO E1/E2 (P63279 whole entry): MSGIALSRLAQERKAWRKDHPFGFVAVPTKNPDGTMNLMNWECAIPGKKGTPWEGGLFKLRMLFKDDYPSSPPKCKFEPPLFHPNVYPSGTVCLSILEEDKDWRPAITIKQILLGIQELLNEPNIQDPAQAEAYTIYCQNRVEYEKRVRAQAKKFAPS
T7 sequence (P65502 whole entry): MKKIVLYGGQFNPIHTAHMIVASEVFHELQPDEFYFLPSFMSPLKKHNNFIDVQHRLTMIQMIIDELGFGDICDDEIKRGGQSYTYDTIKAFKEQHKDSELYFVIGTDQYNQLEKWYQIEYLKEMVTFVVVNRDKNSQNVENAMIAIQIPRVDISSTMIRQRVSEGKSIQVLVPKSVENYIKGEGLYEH
T8 sequence (Q07820 whole entry): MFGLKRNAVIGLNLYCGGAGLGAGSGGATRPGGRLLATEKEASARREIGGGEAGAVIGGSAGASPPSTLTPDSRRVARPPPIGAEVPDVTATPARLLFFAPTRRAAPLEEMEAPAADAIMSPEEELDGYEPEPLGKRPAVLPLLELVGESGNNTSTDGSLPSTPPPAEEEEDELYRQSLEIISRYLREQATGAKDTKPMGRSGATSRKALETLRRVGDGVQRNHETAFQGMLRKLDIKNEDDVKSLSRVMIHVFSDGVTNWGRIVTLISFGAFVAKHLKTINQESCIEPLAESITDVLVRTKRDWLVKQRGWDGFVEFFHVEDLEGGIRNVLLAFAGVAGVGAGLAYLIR
Sequence of Protein Rev (P05866 whole entry): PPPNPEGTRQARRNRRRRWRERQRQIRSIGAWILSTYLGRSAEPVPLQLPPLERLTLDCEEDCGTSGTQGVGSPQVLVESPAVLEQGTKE

Q: With `CC(=O)c1cccc(CN2CCCC(CCC(=O)NCc3ccc(F)c(F)c3)C2)c1` (centres undefined) as the compound, how does the EC50 [1] read?
A: Its EC50 is 0.069 µM (active).

Q: What about the EC50 [2] of the same compound?
A: Its EC50 is 0.069 µM (active).

Q: And the EC50 [3]?
A: The EC50 was > 60 µM (not active).

Q: And the EC50 [4]?
A: The EC50 was < 0.1 µM (active).

Q: And the EC50 [5]?
A: The EC50 was > 195 µM (not active).

Q: What about the EC50 [6] of the same compound?
A: Its EC50 is 0.07 µM (active).

Q: With `CC(C)CC(=O)NC(=S)NNC(=O)c1ccc(NC(=O)C2CCCCC2)cc1` as the compound, how does the EC50 [7] read?
A: Its EC50 is > 150 µM (not active).

Q: What about the EC50 [8] of the same compound?
A: Its EC50 is 58.1 µM (active).

Q: And the EC50 [9]?
A: Its EC50 is 0.517 µM (active).

Q: And the EC50 [10]?
A: The EC50 was 9.89 µM (active).

Q: What about the EC50 [11] of the same compound?
A: Its EC50 is 2.57 µM (active).

Q: What about the EC50 [12] of the same compound?
A: Its EC50 is 70.2 µM (active).

Q: What about the EC50 [13] of the same compound?
A: Its EC50 is 43.7 µM (active).

Q: And the EC50 [14]?
A: The EC50 was 18.7 µM (active).

Q: What about the EC50 [15] of the same compound?
A: Its EC50 is 43.2 µM (active).

Q: What does the source list for `O=C1c2ccccc2NC2=NCCCCN12`?
A: IC50 [16]: > 50 µM (not active); AC50 [17]: 31.1 µM (active); IC50 [18]: 39.5 µM (not active); AC50 [19]: 3.9 µM (active); AC50 [20]: 11.4 µM (active)

Q: What does the source list for `O=C(N/N=C/c1cccc(F)c1)c1cc(-c2ccco2)nc2ccccc12`?
A: IC50 [21]: 3.18 µM (active); IC50 [22]: 21.1 µM (active); IC50 [23]: 1.67 µM (active); IC50 [24]: 2.25 µM (active); IC50 [25]: 7.19 µM (active); IC50 [26]: > 109 µM (not active); IC50 [27]: 8.21 µM (active); IC50 [28]: > 56.8 µM (inactive) and 8.96 µM (active); IC50 [29]: > 79.4 µM (not active); IC50 [30]: 4.81 µM (active); IC50 [31]: 12.9 µM (active) and 4.79 µM (active); IC50 [32]: 7.33 µM (active); IC50 [33]: 7.16 µM (active) and 9.07 µM (active); IC50 [34]: > 49.8 µM (not active)
